Format in all cases: cell-based, Staphylococcus epidermidis
Assay [1] has as its system S. epidermidis. Put plainly: Turbidity assay (absorption at 600 nm). To be noted: serial dilution, 24 h at 37° C. As to the method: A serial dilution (using the factor of 2) of antibacterial solutions was conducted in 12-well plates starting with 200 μL of antibacterial solution was placed in first well. 850 μl of broth and 50 μl of bacterial broth were added to each well plate. The concentrations tested for doxycycline were 1, 0.5, 0.25, 0.125 and 0 mg/mL. The concentrations tested for methicillin are 1.25, 0.625,0.313, […] and 0 mg/mL. Plates were that incubated at 37° C. for 24 h. The solutions were transferred to cuvettes, and their turbidity is measured using a Cary 500 spectrophotometer with the broth used as a baseline. Two wells were prepared for each concentration.

Assay [2] concerns S. epidermidis. Briefly: Disk diffusion (zone inhibition) assay. To be noted: 2 and 4 mg doses; compared to non-treatment control; 24 h at 37° C. The method, then:
S. epidermidis broth of McFarland 0.5 standard (absorption of 0.08 to 0.1) was created using Mueller Hilton Broth. This standard stabilized the cell count at an approximate 1×10^8 CFU/mL Dilution was plated within 15 minutes of standardization. Following the proper aseptic techniques, 0.2 mL of bacterial broth was placed in the center of prepared agar dish. A sterile bacteria spreader was used to evenly spread the bacteria throughout the plate to create a lawn.
Two different dosages of the antibacterial solutions were tested to increase the breadth and reliability of data. […] Petri dishes are incubated for 24 h at 37° C., then the zones of inhibition were measured with the inclusion of disk diameter in the measurements.
The statistical analysis performed in this work confirm the significance of the observed results for diffusion discs performed at different amounts of SWCNT/antibiotic complex loaded onto discs. […] When the p-value of the analysis is lower than the confidence level chosen, the hypothesis is proven false and a significant difference and variation is detected.
The dataset is analyzed using a comparison of means function by assigning a mean of the control group and comparing it to the means of each of the treatment groups. […]
(In agar diffusion tests the substance spreads into inoculated agar from a disc or well.)

The test system of assay [3] is S. epidermidis. Briefly: Colony count (colony formation) assay. To be noted: 100 μl stock solution, 24 h at 37° C. The method, then: Using S. epidermidis broth (McFarland 0.5 standard), 100 μl was placed in the center of the agar plate. 100 μl of the respective antibacterial stock solution is added to the center. Bacteria was spread through the Petri dish and the plates were further incubated for 24 h at 37° C. Pictures of the plates were uploaded onto the OpenCFU software to count the number of colonies grown on the plate. Two plates were prepared for each antibacterial treatment with corresponding controls.

Turning to `COc1cccc(OC)c1C(=O)N[C@@H]1C(=O)N2[C@@H]1SC(C)(C)[C@@H]2C(=O)O` [methicillin], in the assay on S. epidermidis [1], the “turbidity of bacterial media (absorption at 600 nm)” value is on record as “some bacterial inhibition”. Besides, the “antibacterial effect (zone of inhibition) of antibiotic alone” value with S. epidermidis [2] is recorded as “no antibiotic activity”. For the same molecule, the “colony count (in words)” value in the assay with S. epidermidis [3] is recorded as “complete lack of inhibition response”.
